Data: patent US20150087610A1, “Method of Modifying Fertility” (Monell Chemical Senses Center, priority 2012, published 2015)
Entries after “also recorded” stand apart in the source; their conditions may differ.

Assays:
[1] = test system: sperm isolated from the Gnat3−/−mutant mice; test: Calcium imaging of sperm from Gnat3−/− mutant mice; assay type: cell-based, mouse; settings: 2 mM
Method: (§1) Eight adult male mice of each genotype: C57BL/6 and Gnat^−/− mice, were sacrificed, and the testis and caudal epididymis were immediately removed and transferred into HS solution containing (mM): 135 NaCl, 5 KCl, 2 CaCl2, 1 MgCl2, 30 Hepes, 10 glucose, 10 lactic acid, and 1 pyruvic acid (pH adjusted to 7.4 with NaOH) (Xia et al., 2007). For isolation of spermatids, seminiferous tubules from mouse testicle were dissected out and placed in a […] containing 3 ml of HS medium. The tissue was finely minced and gently triturated with a fire-polished pipette, and the mixture was filtered with a 100 μm nylon cell strainer (BD Falcon, Bedford, Mass.). The dissociated cells were collected in a 1.5 ml plastic tube, and washed once in HS medium by centrifugation at 300 g for 4 min and resuspended in HS medium.
(§2) For isolation of epididymal spermatozoa, three incisions were made to the caudal epididymis, which was incubated in a 1.5-ml tube containing 1 ml of HS medium and 5 mg/ml bovine serum albumin (BSA) in a 5% CO2 incubator at 37° C. for 20 minutes (Xia et al., 2007). Sperm cells released into the medium were collected from top 0.1 ml, which were adjusted to 1×10^7 cells/ml HS medium.
(§3) Mouse spermatogenic cells were loaded with 5 μM acetoxymethylester of Fura-2 (Fora-2/AM) and 80 μg/ml pluronic F127 (Molecular Probes, Eugene, Oreg.) and transferred onto coverslips (22×60 mm, No. 0, Thomas Scientific Co.) for at least 1 hour at room temperature. The coverslip with spermatogenic cells was mounted in a recording chamber and superfused with HS or HS containing tasting compounds or the bitter blocker probenecid (Sigma-Aldrich, St. Louis, Mo.) via a valve controller (VC-8, Warner, USA).
(§4) Imaging of calcium responses was conducted as previously described (Gomez et al, 2005). Stimulation duration was 30 seconds and perfusion rate was 0.8 ml/min. Cells were excited at 340 nm and 380 nm and signals at 510 nm were captured by a cooled CCD camera. The change in fluorescence ratio (F=F340/F380) was recorded for regions-of-interest drawn on the cells.

mouse spermatids = test: Calcium imaging of mouse spermatids with bitter tastants; assay type: cell-based; settings: for cells responding with increased intracellular calcium: 29 cells; for calcium response in the principal piece: compared with acrosome and midpiece; for increase in intracellular calcium, acrosome versus midpiece: subcellular areas; for number of cells responding: out of 29 cells
Method: as §1, §3, §4
(§5) To analyze the dose-dependent calcium responses, the response intensity (FN) was normalized and expressed as ΔF/F0 value: ΔF/F0=(F−F0)/F0. Here F0 is the fluorescence at the beginning of stimulation, i.e., time 0, and F is the peak fluorescence ratio evoked by the stimulation. Dose-response curves and EC50 values were generated based on the normalized responses using the software Origins by nonlinear regression.

epididymal sperm cells = test: Calcium imaging of mouse epididymal sperm cells with bitter tastants; assay type: cell-based; settings: for calcium responses from the principal pieces / # CELLS RESPONDED / amplitudes of the responses from the acrosome and midpiece: epididymal sperm; for cells responding with calcium responses: 49 cells; for amplitudes of the responses from the acrosome and midpiece: subcellular areas
Method: as §2, §3, §4, §5

human Tas2r38 = human Tas2r38 (Homo sapiens, UniProt P59533); settings: cited from earlier work
C57B/6L wild-type sperm = test: Bitter blocker probenecid on calcium responses of wild-type mouse sperm; assay type: cell-based; settings: 300 μM PTC alone
Method: as §3, §4
To confirm whether the germ cells' responses to bitter tastants were mediated by the bitter taste receptors, we examined the effect of the bitter taste receptor blocker probenecid (Greene et al, 2001) and nullification of the α-gustducin gene in Gnat3 α-gustducin knockout mice described in Wong et al, 1996. Probenecid is known to inhibit the responses of human T2R16, 38 and 43 to salicin, PTC and PROP, and aloin, but not that of T2R31 to saccharin (Greene et al, 2011).

[2] = spermatids, response profile 1, total 29 cells
[3] = spermatids, response profile 3, total 29 cells
[4] = spermatids, response profile 5, total 29 cells
[5] = FIG. 6, epididymal sperm Cell 1
[6] = FIG. 6, epididymal sperm Cell 3
[7] = FIG. 6, epididymal sperm Cell 4
[8] = response profile 1, total 49 cells
[9] = response profile 2, total 49 cells
[10] = response profile 3, total 49 cells
[11] = response profile 4, total 49 cells
[12] = response profile 5, total 49 cells
[13] = response profile 7, total 49 cells
[14] = response profile 8, total 49 cells
[15] = response profile 10, total 49 cells
[16] = spermatids, response profile 2, total 29 cells
[17] = spermatids, response profile 6, total 29 cells
[18] = response profile 6, total 49 cells
[19] = response profile 11, total 49 cells
[20] = spermatids, response profile 4, total 29 cells
[21] = FIG. 6, epididymal sperm Cell 5
[22] = response profile 9, total 49 cells

Nc1ncnc2c1ncn2[C@@H]1O[C@H](COP(=O)(O)OP(=O)(O)OP(=O)(O)O)[C@@H](O)[C@H]1O [ATP]
calcium response of Gnat3−/− sperm [1]: normal; also recorded: did respond

CCCc1cc(=O)[nH]c(=S)[nH]1 [PROP, 6-propyl-2 thiouracil]
EC50 (mouse spermatids; mouse spermatids, Fura-2 calcium imaging, normalized ΔF/F0, read-out: EC50 of calcium response): 24 ± 12 µM
cells responding with increased intracellular calcium (mouse spermatids; spermatids): 27.6%
# CELLS RESPONDED (mouse spermatids; [2]): 3
# CELLS RESPONDED (mouse spermatids; [3]): 1
# CELLS RESPONDED (mouse spermatids; [4]): 1
# CELLS RESPONDED (mouse spermatids; spermatids, response profile 9, total 29 cells): 3
calcium response at low concentrations (mouse spermatids; spermatids, 0.01, 0.1 and 1 μM): No responses
calcium response of individual cell (epididymal sperm cells; [5]): responded
calcium response of individual cell (epididymal sperm cells; [6]): weakly
calcium response of individual cell (epididymal sperm cells; [7]): responded weakly
calcium responses from the principal pieces (epididymal sperm cells): mostly undetectable
cells responding with calcium responses (epididymal sperm cells; epididymal sperm cells): about 61.2%
# CELLS RESPONDED (epididymal sperm cells; [8]): 4
# CELLS RESPONDED (epididymal sperm cells; [9]): 13
# CELLS RESPONDED (epididymal sperm cells; [10]): 1
# CELLS RESPONDED (epididymal sperm cells; [11]): 1
# CELLS RESPONDED (epididymal sperm cells; [12]): 4
# CELLS RESPONDED (epididymal sperm cells; [13]): 1
# CELLS RESPONDED (epididymal sperm cells; [14]): 1
# CELLS RESPONDED (epididymal sperm cells; [15]): 5
amplitudes of the responses from the acrosome and midpiece (epididymal sperm cells): equally strong
calcium response of Gnat3−/− sperm [1]: unresponsive; also recorded: did not respond
EC50 (human Tas2r38; four responding variants of the receptor): 2 to 4 µM
response of receptor variants (human Tas2r38; two of six variants): unresponsive

NC(=S)Nc1ccccc1 [PTC, N-phenylthiourea]
calcium response in the principal piece (mouse spermatids; spermatids): detectable but much smaller
# CELLS RESPONDED (mouse spermatids; [2]): 3
# CELLS RESPONDED (mouse spermatids; [16]): 1
# CELLS RESPONDED (mouse spermatids; [3]): 1
# CELLS RESPONDED (mouse spermatids; [17]): 1
# CELLS RESPONDED (mouse spermatids; spermatids, response profile 10, total 29 cells): 3
increase in intracellular calcium, acrosome versus midpiece (mouse spermatids; spermatids): much larger in the acrosome than in the midpiece
calcium response of individual cell (epididymal sperm cells; [5]): responded
calcium responses from the principal pieces (epididymal sperm cells): mostly undetectable
# CELLS RESPONDED (epididymal sperm cells; [8]): 4
# CELLS RESPONDED (epididymal sperm cells; [9]): 13
# CELLS RESPONDED (epididymal sperm cells; [11]): 1
# CELLS RESPONDED (epididymal sperm cells; [18]): 1
# CELLS RESPONDED (epididymal sperm cells; [13]): 1
# CELLS RESPONDED (epididymal sperm cells; [14]): 1
# CELLS RESPONDED (epididymal sperm cells; [19]): 1
amplitudes of the responses from the acrosome and midpiece (epididymal sperm cells): equally strong
increase in the intracellular calcium concentration (C57B/6L wild-type sperm): significant
calcium response of Gnat3−/− sperm [1]: unresponsive; also recorded: did not respond

C[C@@H]1C[C@@H]([C@H](O)CC2CC(=O)NC(=O)C2)C(=O)[C@@H](C)C1 [cycloheximide]
cells responding with increased intracellular calcium (mouse spermatids; spermatids): 62.1%
number of cells responding (mouse spermatids; spermatids): 18
# CELLS RESPONDED (mouse spermatids; [2]): 3
# CELLS RESPONDED (mouse spermatids; [16]): 1
# CELLS RESPONDED (mouse spermatids; [3]): 1
# CELLS RESPONDED (mouse spermatids; [20]): 7
# CELLS RESPONDED (mouse spermatids; [4]): 1
# CELLS RESPONDED (mouse spermatids; spermatids, response profile 7, total 29 cells): 5
calcium response of individual cell (epididymal sperm cells; [5]): responded
calcium response of individual cell (epididymal sperm cells; FIG. 6, epididymal sperm Cell 2): responded only
calcium response of individual cell (epididymal sperm cells; [6]): responded
calcium response of individual cell (epididymal sperm cells; [7]): responded weakly
calcium response of individual cell (epididymal sperm cells; [21]): responded weakly
calcium responses from the principal pieces (epididymal sperm cells): mostly undetectable
cells responding with calcium responses (epididymal sperm cells; epididymal sperm cells): 93.9%
number of cells responding (epididymal sperm cells; epididymal sperm cells, out of 49 cells): 46
# CELLS RESPONDED (epididymal sperm cells; [8]): 4
# CELLS RESPONDED (epididymal sperm cells; [9]): 13
# CELLS RESPONDED (epididymal sperm cells; [10]): 1
# CELLS RESPONDED (epididymal sperm cells; [11]): 1
# CELLS RESPONDED (epididymal sperm cells; [12]): 4
# CELLS RESPONDED (epididymal sperm cells; [18]): 1
# CELLS RESPONDED (epididymal sperm cells; [13]): 1
# CELLS RESPONDED (epididymal sperm cells; [22]): 1
# CELLS RESPONDED (epididymal sperm cells; [15]): 5
# CELLS RESPONDED (epididymal sperm cells; response profile 12, total 49 cells): 15
amplitudes of the responses from the acrosome and midpiece (epididymal sperm cells): equally strong
calcium response of Gnat3−/− sperm [1]: did not respond
calcium response of Gnat3−/− sperm ([1]; listed as cyclohexmide): unresponsive

CC[N+](CC)(CC(=O)Nc1c(C)cccc1C)Cc1ccccc1 [denatonium]
cells responding with increased intracellular calcium (mouse spermatids; spermatids): 55.2%
calcium response in the principal piece (mouse spermatids; spermatids): detectable but much smaller
# CELLS RESPONDED (mouse spermatids; [2]): 3
# CELLS RESPONDED (mouse spermatids; [16]): 1
# CELLS RESPONDED (mouse spermatids; [20]): 7
# CELLS RESPONDED (mouse spermatids; [17]): 1
# CELLS RESPONDED (mouse spermatids; spermatids, response profile 8, total 29 cells): 4
increase in intracellular calcium, acrosome versus midpiece (mouse spermatids; spermatids): much larger in the acrosome than in the midpiece
calcium response of individual cell (epididymal sperm cells; [5]): responded
calcium response of individual cell (epididymal sperm cells; [7]): responded weakly
calcium response of individual cell (epididymal sperm cells; [21]): responded weakly
calcium responses from the principal pieces (epididymal sperm cells): mostly undetectable
cells responding with calcium responses (epididymal sperm cells; epididymal sperm cells): ~53.1%
# CELLS RESPONDED (epididymal sperm cells; [8]): 4
# CELLS RESPONDED (epididymal sperm cells; [9]): 13
# CELLS RESPONDED (epididymal sperm cells; [10]): 1
# CELLS RESPONDED (epididymal sperm cells; [12]): 4
# CELLS RESPONDED (epididymal sperm cells; [18]): 1
# CELLS RESPONDED (epididymal sperm cells; [14]): 1
# CELLS RESPONDED (epididymal sperm cells; [22]): 1
# CELLS RESPONDED (epididymal sperm cells; [19]): 1
amplitudes of the responses from the acrosome and midpiece (epididymal sperm cells): equally strong
calcium response of Gnat3−/− sperm [1]: unresponsive; also recorded: did not respond

CCN(CC)CCNC(=O)c1ccc(N)cc1 [procainamide]
calcium response in the principal piece (mouse spermatids; spermatids): detectable but much smaller
increase in intracellular calcium, acrosome versus midpiece (mouse spermatids; spermatids): much larger in the acrosome than in the midpiece

OCc1ccccc1O[C@@H]1O[C@H](CO)[C@@H](O)[C@H](O)[C@H]1O [salicin]
number of cells responding (mouse spermatids; spermatids): No spermatids were found to respond
frequency of responsive cells (epididymal sperm cells; FIG. 6, epididymal sperm): rare
cells responding with calcium responses (epididymal sperm cells; epididymal sperm cells): about 14.3%
# CELLS RESPONDED (epididymal sperm cells; [8]): 4
# CELLS RESPONDED (epididymal sperm cells; [10]): 1
# CELLS RESPONDED (epididymal sperm cells; [11]): 1
# CELLS RESPONDED (epididymal sperm cells; response profile 13, total 49 cells): 1
calcium response of Gnat3−/− sperm [1]: unresponsive; also recorded: did not respond
